In assay [1] the target is T1, FKBP12 (Homo sapiens, UniProt P62942). Kind of assay: Spectral shift target engagement assay, binary binding to FKBP12. The settings on record: 40 nM FKBP12-NTA; for Kd: KC,1 = EC50 − [Ctot]/2. The text has this: (§1) Our method of choice is the spectral shift method, which monitors binding events on the target isothermally and in equilibrium via an environment-sensitive near-infrared fluorophore. In the case of target engagement, either the proximity of the ligand towards the dye or structural changes occurring in the target as a result of binding lead to a change in the chemical environment of the fluorophore. Those changes affect the physiochemical properties of the reporter fluorophore and translate into either blue or red shifts (or peak broadening) of emission peaks upon ligand binding, which can be sensitively monitored by simultaneously recording the fluorescence at two wavelengths (i.e., at 650 nm and 670 nm). Calculating the ratio between the two fluorescence channels then allows to monitor subtle emission shifts that occur as a result of target engagement. Affinity measurements can then be performed by recording the spectral shift as a function of ligand concentration.
(§2) Binding studies through FKBP12: To monitor the binding of R,--SLF-11 by the stronger binding FKBP12 in the absence and in the presence of 10 μM MAPRE1 via %Cbound, binary and %Cbound, ternary, respectively, the concentration of reversibly NTA-labeled FKBP12 was limited to [Ctot] = 40 nM. […] In contrast to the experimental setup in the previous two binding experiments with monitoring through the weaker binding protein MAPRE1, where the applied protein concentrations were optimally chosen, this is not the case for the binding experiment through the stronger binder FKBP12. First of all, the applied excess of T with [Ttot] = 10 μM is roughly 20000-fold off of the proposed 100 times KT,1 threshold, which would correspond to 180 mM. Only under such excess conditions of T can the equilibrium of forming TL under the constraint that all ligand L is bound to T be reached to ensure that [Ltot] approaches the “ligand” concentration [TL]. […] If KC,2 is sufficiently high, the 20 nM deviation to correct for the protein concentration could be neglected. However, the resulting calculated value for KC,2 is 0.023 nM, accounting for the cooperativity α = 10,405 and KC,1 = 234 nM as derived by the MAPRE1 experiment. This value is far below the applied protein concentration of [Ctot] = 40 nM and makes it infeasible to estimate KC,2 from the EC50 of the %Cbound, ternary curve. Consequently, the EC50 shifts, meaning the apparent cooperativity, from monitoring the binding by the stronger binding protein C are diverging from the underlying intrinsic cooperativity α. […] The deviation of calculated (254 nM/24.2 nM = 10.5) and measured apparent cooperativity (254 nM/66 nM = 3.8) can be explained by a negative cooperativity induced by the His6-NTA tag of FKBP12. Studies to lower [Ctot] and identify a better position for the spectral shift tag on FKBP12 are ongoing (Figure 6a).
(§3) His-tagged FKBP12 was labeled using the His-Tag Labeling Kit RED-tris-NTA 2nd Generation (MO-L018; NanoTemper Technologies GmbH). The affinity between NTA dye and the His-tag of FKBP12 was determined as 7 nM. MAPRE1 was labeled using the Protein Labeling Kit RED-NHS 2nd Generation (MO-L011; NanoTemper Technologies GmbH). In brief, 10 µM of MAPRE1 was incubated with a 3-fold molar excess of fluorophore for 30 min. The unreacted fluorophore was removed by performing a size exclusion purification (B-column). Collecting the protein fraction yielded 1.8 µM labeled MAPRE1, with a degree of labeling of 0.8, as determined on a Nanodrop.
(§4) A 1:2 dilution series of all compounds (starting from the 10 mM stock concentration) was prepared in pure DMSO. Each concentration was diluted 25-fold with assay buffer (20 mM HEPES, pH 7.4, 150 mM NaCl, 1 mM DTT (all from Carl Roth, Karlsruhe, Germany), and 0.01% Pluronic F-127 (Sigma Aldrich, Taufkirchen, Germany)). Next, 10 µL from each of the prepared ligand dilutions was transferred into an empty well on a Dianthus Microwell Plate (DI-P001A). […]

For assay [2], the target named is FKBP12 in the presence of MAPRE1 (Homo sapiens, UniProt P62942+Q15691). Kind of assay: Spectral shift target engagement assay, binding to FKBP12 in the presence of 10 μM MAPRE1 (ternary).
Excerpt: as §1, §2, §3, §4

The subject of assay [3] is FKBP12:R,S-SLF-X:MAPRE1 ternary complex. Also noted: method as in PMID 40059881. The settings on record: TR-FRET proximity assay, reported earlier; cited from earlier work. For orientation: TR-FRET usually uses a lanthanide donor and a delayed reading to cut background.
For assay [4], the target named is T2, MAPRE1 (Homo sapiens, UniProt Q15691).
T2 construct: His-tag (N)
T2 sequence (Q15691 1-268): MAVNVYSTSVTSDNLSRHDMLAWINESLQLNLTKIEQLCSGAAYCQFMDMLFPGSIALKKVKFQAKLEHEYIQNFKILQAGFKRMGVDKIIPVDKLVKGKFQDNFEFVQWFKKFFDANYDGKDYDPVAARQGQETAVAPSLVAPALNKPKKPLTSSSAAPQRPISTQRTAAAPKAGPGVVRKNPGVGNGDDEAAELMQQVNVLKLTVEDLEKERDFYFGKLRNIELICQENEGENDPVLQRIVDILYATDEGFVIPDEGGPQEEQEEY
The experiment in a line: Spectral shift target engagement assay, binary binding to MAPRE1. The settings on record: up to [Ltot] = 200 μM.

In assay [5] the target is T3, MAPRE1 in the presence of FKBP12 (Homo sapiens, UniProt P62942+Q15691).
T3 construct: His-tag (N)
The experiment in a line: Spectral shift target engagement assay, binding to MAPRE1 in the presence of 10 μM FKBP12 (ternary). The settings on record: for Ratio [Ctot]/KC,1: [Ctot] = 10 μM FKBP12.
Excerpt: as §1
Binding study through MAPRE1: MAPRE1 was labeled via lysines using an NHS-conjugated dye. The final concentration of MAPRE1NHS (referring to [Ttot]) was 5 nM. Compounds could be titrated up to a concentration of 200 μM (referring to [Ltot]). […] However more accuracy could only be achieved at higher ligand concentrations—ideally at full target saturation. However, this was experimentally infeasible due to assay conditions (i.e., the requirement of maintaining a certain DMSO concentration or avoiding solubility issues of the ligand). Although the determined KT,1 values of binding to MAPRE1 are only approximations, their relative ranking reflects the underlying differences in the affinity of the ligands L to MAPRE1. Performing these experiments in duplicates confirmed the high signal-to-noise ratio, i.e., there was no significant deviation between the two curves, indicating a high accuracy of the interpolated EC50 values. Due to the low [Ttot] = 5 nM, this value coincides with KT,1 (1.8 mM − 0.005 mM/2 ≈ 1.8 mM). […] Consequently, KT,2 corresponds to 173 nM and not 177.5 nM.
as §3
A 1:2 dilution series of all compounds (starting from the 10 mM stock concentration) was prepared in pure DMSO. Each concentration was diluted 25-fold with assay buffer (20 mM HEPES, pH 7.4, 150 mM NaCl, 1 mM DTT (all from Carl Roth, Karlsruhe, Germany), and 0.01% Pluronic F-127 (Sigma Aldrich, Taufkirchen, Germany)). Next, 10 µL from each of the prepared ligand dilutions was transferred into an empty well on a Dianthus Microwell Plate (DI-P001A). Another 10 µL of 2-fold concentrated labeled protein (either in the absence or the presence of 20 µM counter protein, both in assay buffer then yielded the final assay concentrations. Interaction measurements were prepared in duplicates for each condition. For binary interactions of compounds with MAPRE1, a final target concentration of 5 nM and a highest ligand concentration of 50 µM was prepared. For ternary interactions of compounds and MAPRE1 in the presence of 10 µM unlabeled FKBP12, the highest ligand concentration was increased to 200 µM, the highest concentration achievable while maintaining a constant 2% DMSO concentration. For all interactions measured via FKBP12, the target was prepared at a final concentration of 40 nM, supplemented with 5 nM NTA fluorophore. […]

In assay [6] the target is T1, FKBP12. Also noted: method as in PMID 40059881. The settings on record: TR-FRET competitive binding assay from previous work; read-out: EC50_FKBP12; cited from earlier work.
For assay [7], the target named is T2, MAPRE1. Also noted: method as in PMID 40059881. The settings on record: previous NMR studies; read-out: affinity for MAPRE1; cited from earlier work.
[8] abbreviates: 40 nM FKBP12-NTA, 10 μM MAPRE1, read-out: EC50 of the %Cbound, ternary curve (measured).

“Also recorded” adds a separate entry of the source. Read-outs that look alike come from different tables or passages of the source.

T3 sequence (P62942 whole entry, one chain of several): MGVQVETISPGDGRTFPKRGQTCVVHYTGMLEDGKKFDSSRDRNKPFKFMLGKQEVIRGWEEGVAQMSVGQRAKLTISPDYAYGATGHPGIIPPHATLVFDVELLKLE
T1 sequence (P62942 whole entry, species assumed): as the sequence (P62942 whole entry, one chain of several) above
Chain of FKBP12 in the presence of MAPRE1 (P62942 whole entry, one chain of several): as above

Turning to `COc1ccc(CCC2OC(=O)C3CCCCN3C(=O)C(=O)C(C)(C)COC(=O)C(C)NC(=O)C3CC(O)CN3C(=O)COc3cccc2c3)cc1OC` (stereo not shown) [R,S-SLF-12], the Kd at FKBP12 [1] is 13 nM. In addition, the values for the EC50 (in assay [2] (setting [8]); at FKBP12 [6]) were 30 nM and 43 nM, respectively. Further, the “TR-FRET Recruitment Assay (%Amax)” value in assay [3] was 0%. In addition, the “binary binding to MAPRE1 (%Tbound, binary)” value on MAPRE1 [4] is given as “no binding; also recorded: Neither binary nor ternary binding”. Also, the “ternary binding to MAPRE1” value in assay [5] (10 μM FKBP12) is recorded as “Neither binary nor ternary binding”. Besides, the “Ratio [Ctot]/KC,1” value in assay [5] is 769.

As to `C=C1CCN2C(=O)COc3cccc(c3)C(CCc3ccc(OC)c(OC)c3)OC(=O)C3CCCCN3C(=O)C(=O)C(C)(C)COC(=O)C(C)NC(=O)C2C1` (stereo not shown) [R,S-SLF-1a], the EC50 on FKBP12 [1] (no MAPRE1, read-out: EC50 of the %Cbound, binary curve) was 41 nM; in assay [2] (setting [8]) it was 45 nM; in assay [2] (calculated with the model using α from MAPRE1 binding, read-out: calc EC50 of the %Cbound, ternary curve), 20 nM; in assay [5] (5 nM MAPRE1-NHS, 10 μM FKBP12, read-out: EC50 of the %Tbound, ternary curve) it was 1030 nM; on FKBP12 [6] it was 230 nM. Further, the Kd on FKBP12 [1] is 21 nM; in assay [5] (ternary Kd, model-based ([CL] at [Ltot] = EC50), read-out: KT,2), 1020 nM; at MAPRE1 [7], greater than 250000 nM. In addition, in assay [3], the “TR-FRET Recruitment Assay (%Amax)” value was 51%. For the same compound, the “Ratio [Ctot]/KC,1” value in assay [5] was determined as 476. The “100 × (EC50 %Tbound ternary − 0.5 [Ttot] − KT,2)/KT,2” value in assay [5] (difference between EC50 of the %Tbound, ternary curve and KT,2, [Ttot] = 5 nM) stood at 0.3%. For the same compound, in assay [5] (from KC,1, KT,1 and EC50 of the %Tbound, ternary curve with the mathematical model, [Ctot] = 10,000 nM, [Ttot] = 5 nM), the “Intrinsic cooperativity α” value worked out at 1951.

The values above are taken from paper PMC11989212, “Experimental Conditions to Retrieve Intrinsic Cooperativity α Directly from Single Binding Assay Data Exemplified by the Ternary Complex Formation of FKBP12, MAPRE1 and Macrocyclic Molecular Glues” (International Journal of Molecular Sciences, 2025).
